Legend:
[1] = system: procollagen peptide production by human epidermal fibroblasts; assay: Increase of collagen stimulation (procollagen peptide ELISA); type: cell-based; conditions: human adult epidermal fibroblasts, treated 3 days
Description: Increase of Collagen Stimulation: Collagen is an extracellular matrix protein critical for skin structure. Increased synthesis of collagen helps improve skin firmness and elasticity. This bioassay was used to examine the effect of tetrahexyldecyl ascorbate, and/or Phyllanthus emblica fruit extract on the production of procollagen peptide (a precursor to collagen) by human epidermal fibroblasts. The endpoint of this assay was a spectrophotometric measurement that reflects the presence of procollagen peptide and cellular viability. The assay employed the quantitative sandwich enzyme immunoassay technique whereby a monoclonal antibody specific for procollagen peptide had been pre-coated onto a microplate. Standards and samples were pipetted into the wells and any procollagen peptide present was bound by the immobilized antibody. […] Following a wash to remove any unbound antibody-enzyme reagent, a substrate solution was added to the wells and color develops in proportion to the amount of procollagen peptide bound in the initial step using a microplate reader for detection at 450 nm. The color development was stopped and the intensity of the color was measured. […] Following incubation, cell culture medium was collected and the amount of procollagen peptide secretion quantified using a sandwich enzyme linked immuno-sorbant assay (ELISA) from Takara (#MK101).

MMP3 = biological target: T1, MMP3 (Homo sapiens, UniProt P08254); assay: Inhibition of matrix metalloproteinase enzyme activity (MMP3) assay; type: biochemical
T1 construct: purchased BioMol International AK-400
Description: Inhibition of Matrix Metalloproteinase Enzyme Activity (MMP3) Assay: MMPs are extracellular proteases that play a role in many normal and disease states by virtue of their broad substrate specificity. MMP3 substrates include collagens, fibronectins, and laminin; while MMP9 substrates include collagen VII, fibronectins and laminin. Using Colorimetric Drug Discovery kits from BioMol International for MMP3 (AK-400) and MMP-9 (AK-410), this assay was designed to measure protease activity of MMPs using a thiopeptide as a chromogenic substrate (Ac-PLG-[2-mercapto-4-methyl-pentanoyl]-LG-OC2H5)5,6. The MMP cleavage site peptide bond was replaced by a thioester bond in the thiopeptide. Hydrolysis of this bond by an MMP produced a sulfhydryl group, which reacted with DTNB [5,5′-dithiobis(2-nitrobenzoic acid), Ellman's reagent] to form 2-nitro-5-thiobenzoic acid, which was detected by its absorbance at 412 nm (ε=13,600 M-1 cm-1 at pH 6.0 and above 7). Tetrahexyldecyl ascorbate was assayed.

T1 sequence (P08254 100-272 limits assumed): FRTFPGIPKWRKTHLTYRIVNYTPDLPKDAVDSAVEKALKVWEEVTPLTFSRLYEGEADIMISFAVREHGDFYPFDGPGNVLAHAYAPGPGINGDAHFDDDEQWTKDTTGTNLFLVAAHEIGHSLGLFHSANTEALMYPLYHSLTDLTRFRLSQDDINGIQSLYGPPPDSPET

## CCCCCCCCC(CCCCCC)C(=O)OC[C@H](OC(=O)C(CCCCCC)CCCCCCCC)[C@H]1OC(=O)C(OC(=O)C(CCCCCC)CCCCCCCC)=C1OC(=O)C(CCCCCC)CCCCCCCC (some centres unmarked) [Tetrahexyldecyl ascorbate]
[1]
  Increase of collagen: +50%
MMP3
  Inhibition of MMP3 activity: −38%

Reference: US11883524B2, “Cosmetic compositions” (MARY KAY INC., priority 2018, dated 2024)
